Experimental data reported in patent US5480882A, “Benzoxazinone and benzothiazinone derivatives having cardiovascular activity” (Italfarmaco S.p.A., priority 1992, dated 1996).
Structures can show the parent of a compound that is named as a salt.

Experiments:
[1] = system: Arg-vasopressin induced coronary spasm, anaesthetized Sprague Dawley rats; test: In vivo antianginal activity, Arg-vasopressin-induced coronary spasm (T-wave increase) in anaesthetized rats; settings: Rattus norvegicus, iv, 4 increasing doses; 50% inhibition of T-wave increase induced by i.v. Arg-vasopressin in anaesthetized rats
Method: The in vivo antianginal activity was determined on anaesthetized Sprague Dawley rats of weight 350-400 g, in accordance with the method of M. Leitold et al., Arzeim. Forsch., 36, 1454 1986. The test was carried out by intravenously administering to the animals one I.U./Kg, equivalent to […] of Arg-vasopressin, thus inducing a reproducible coronary spasm that may be electrocardiographically monitored by an increase of the T-wave. The animals were treated intravenously with 4 increasing doses of the compounds of the present invention to measure their ED50 (i.e., the dose giving 50% inhibition of the T-wave increase).

[2] = system: rabbit aorta strip contracted with noradrenaline; test: Vasodilative activity in vitro, inhibition of noradrenaline-induced contraction of rabbit aorta strip; format: cell-based; settings: Oryctolagus cuniculus; 50% inhibition of noradrenaline contraction of rabbit aorta strip
Method: The vasodilative activity of the compounds of the present invention were determined by testing of a rabbit aorta strip contracted with noradrenaline. Using the method described by K. Murakami et al. Eur. J. Pharmacol., 141, 195, 1987., IC50 values (i.e. the micromolar (μM) concentrations of active substances causing a 50% inhibition of the contraction of the aorta strip), were determined.

SMILES | IC50 [2] | ED50 [1]
O=C1c2cc([N+](=O)[O-])ccc2OCN1CCO[N+](=O)[O-] [Example 1, 2,3-Dihydro-3-(2'-nitrooxyethyl)-6-nitro,4H-1,3-benzoxazin-4-one] | 0.021 µM | 0.0637 mg/kg
CC(=O)Nc1ccc2c(c1)C(=O)N(CCO[N+](=O)[O-])CO2 [Example 2, 6-Acetamido-2,3-dihydro-3-(2'-nitrooxyethyl)-4H-1,3-benzoxazin-4-one] | 0.27 µM | 0.021 mg/kg
CN(C)C=Nc1ccc2c(c1)C(=O)N(CCO[N+](=O)[O-])CO2 [Example 3, 2,3-Dihydro-6-(N',N',-dimethyl-N-formimido)-3-(2'-nitro-oxyethyl)-4H-1,3-benzoxazin-4-one-HCl] | 0.64 µM | 0.0097 mg/kg
N#Cc1ccc2c(c1)C(=O)N(CCO[N+](=O)[O-])CO2 [Example 4, 6-Ciano-2,3-dihydro-3-(2'-nitrooxyethyl)-4H-1.3-benzoxazin-4-one] | 0.071 µM | 0.0115 mg/kg

Now from value to compound, other results behind:

IC50 [2] | SMILES | ED50 [1]
0.096 µM | O=C1c2cc(O)ccc2OCN1CCO[N+](=O)[O-] [Example 5, 2,3-Dihydro-6-hydroxy-3-(2'-nitrooxyethyl)-4H-1,3-benzoxazin-4-one] | –
0.057 µM | O=C1c2ccc(O)cc2OCN1CCO[N+](=O)[O-] [Example 6, 2,3-Dihydro-7-hydroxy-3-(2'-nitrooxyethyl)-4H-1,3-benzoxazin-4-one] | –
